Laboratory results from the NIST ThermoML archive (doi:10.1016/j.jct.2014.04.017).

Details: 101.33 kPa, Liquid, Buoyancy - hydrostatic balance

CCCCCC[n+]1ccn(C)c1.O=S(=O)([N-]S(=O)(=O)C(F)(F)F)C(F)(F)F
Details | mass density [kg/m3]
262.98 K | 1405.31
268.26 K | 1400.21
272.74 K | 1395.9
278.03 K | 1390.98
283.18 K | 1385.8
288.12 K | 1381.67
292.84 K | 1377.27
298.15 K | 1372.76
303.13 K | 1368.35
308.26 K | 1362.94
313.34 K | 1358.8
318.28 K | 1354.33
323.34 K | 1349.1
328.18 K | 1345.78
332.77 K | 1341.44
338.51 K | 1336.76
343.65 K | 1332.79
348.22 K | 1328.79
352.66 K | 1324.84
358.06 K | 1320.79
364.78 K | 1314.72

CCCC[n+]1ccn(C)c1.O=S(=O)([N-]S(=O)(=O)C(F)(F)F)C(F)(F)F
Details | mass density [kg/m3]
274.86 K | 1458.44
277.17 K | 1456.4
281.91 K | 1452.1
287.89 K | 1446.21
293.45 K | 1441.4
298.34 K | 1436.71
303.07 K | 1432.1
308.18 K | 1426.64
313.04 K | 1422.13
318.02 K | 1417.45
323.1 K | 1412.39
328.17 K | 1407.64
333.42 K | 1403.16
338.42 K | 1398.52
343.02 K | 1394.25
348.36 K | 1389.71
352.89 K | 1385.06
358.03 K | 1380.66
364.37 K | 1374.57

CCCn1cc[n+](C)c1.F[P-](F)(F)(F)(F)F [1-methyl-3-propylimidazolium hexafluorophosphate]
Details | mass density [kg/m3]
303.08 K | 1410.96
313.18 K | 1402.37
318.04 K | 1398.33
323.07 K | 1393.53
328.22 K | 1389.63
333.39 K | 1385.32
338.41 K | 1381.11
343.27 K | 1377.03
348.16 K | 1372.97
352.56 K | 1369.14
358.11 K | 1364.85
364.89 K | 1359.36

CCCC[n+]1cccc(C)c1.F[P-](F)(F)(F)(F)F [1-butyl-3-methylpyridinium hexafluorophosphate]
Details | mass density [kg/m3]
322.98 K | 1321.09
327.57 K | 1317.44
333.44 K | 1312.89
338.78 K | 1308.72
343.67 K | 1304.93
348.19 K | 1301.53
353.1 K | 1297.87
358.08 K | 1294.06
364.61 K | 1289.01

C[n+]1cc[nH]c1.O=S(=O)([N-]S(=O)(=O)C(F)(F)F)C(F)(F)F [1-methylimidazolium bis(trifluoromethylsulfonyl)imide]
Details | mass density [kg/m3]
323.28 K | 1614.04
325.58 K | 1610.84
328.01 K | 1607.46
330.51 K | 1605.18
333.62 K | 1601.54
335.65 K | 1599.35
338.58 K | 1596.52
340.97 K | 1593.47
343.62 K | 1590.71

CCn1cc[n+](C)c1.O=S(=O)([N-]S(=O)(=O)C(F)(F)F)C(F)(F)F
Details | mass density [kg/m3]
261.46 K | 1556.58
268.29 K | 1548.72
273.3 K | 1544.02
278.37 K | 1539.04
282.48 K | 1535.02
287.45 K | 1529.96
293.11 K | 1524.41
298.13 K | 1519.52
302.98 K | 1514.33
308.32 K | 1508.35
313.89 K | 1503.28
318.09 K | 1498.65
323.34 K | 1493.84
328.03 K | 1488.18
333.55 K | 1483.58
337.88 K | 1479.01
342.95 K | 1473.82
348.1 K | 1469.36
352.98 K | 1464.95
357.53 K | 1460.04
363.55 K | 1453.65

CCCCn1cc[n+](C)c1C.F[P-](F)(F)(F)(F)F [1-butyl-2,3-dimethylimidazolium hexafluorophosphate]
Details | mass density [kg/m3]
308.17 K | 1342.4
313.09 K | 1338.43
318.12 K | 1334.34
323.15 K | 1330.39
328.24 K | 1326.32
333.37 K | 1322.54
338.85 K | 1318.34
343.33 K | 1314.8
347.97 K | 1310.87
352.71 K | 1307.2
357.94 K | 1302.89
364.63 K | 1298.26
